Test results as given in US11697648B2, “Fused pyrimidine pyridinone compounds as JAK inhibitors” (THERAVANCE BIOPHARMA R&D IP, LLC, priority 2019, dated 2023).

What was measured:
[1] = target: JAK1 (Homo sapiens (Human), UniProt P23458); assay: Biochemical JAK1 kinase assay (LanthaScreen)
Protocol: (§1) Assay 1: Biochemical JAK and Tyk2 Kinase Assays
(§2) A panel of four LanthaScreen JAK biochemical assays (JAK1, 2, 3 and Tyk2) were carried in a common kinase reaction buffer (50 mM HEPES, pH 7.5, 0.01% Brij-35, 10 mM MgCl2, and 1 mM EGTA). Recombinant GST-tagged JAK enzymes and a GFP-tagged STAT1 peptide substrate were obtained from Life Technologies.
(§3) Serially or discretely diluted compounds were pre-incubated with each of the four JAK enzymes and the substrate in white 384-well microplates (Corning) at ambient temperature for 1 h. ATP was subsequently added to initiate the kinase reactions in 10 μL total volume, with 1% DMSO. […] Kinase reactions were allowed to proceed for 1 hour at ambient temperature before a 10 μL preparation of EDTA (10 mM final concentration) and Tb-anti-pSTAT1 (pTyr701) antibody (Life Technologies, 2 nM final concentration) in TR-FRET dilution buffer (Life Technologies) was added. The plates were allowed to incubate at ambient temperature for 1 h before being read on the EnVision reader (Perkin Elmer). Emission ratio signals (520 nm/495 nm) were recorded and utilized to calculate the percent inhibition values based on DMSO and background controls.
(§4) For dose-response analysis, percent inhibition data were plotted vs. compound concentrations, and IC50 values were determined from a 4-parameter robust fit model with the Prism software (GraphPad Software). Results were expressed as pIC50 (negative logarithm of IC50) and subsequently converted to pKi (negative logarithm of dissociation constant, Ki) using the Cheng-Prusoff equation.

[2] = target: Tyk2 (Homo sapiens (Human), UniProt P29597); assay: Biochemical Tyk2 kinase assay (LanthaScreen)
Protocol: as §1, §2, §3, §4

[3] = target: JAK3 (Homo sapiens (Human), UniProt P52333); assay: Biochemical JAK3 kinase assay (LanthaScreen)
Protocol: as §1, §2, §3, §4

[4] = target: JAK2 (Homo sapiens (Human), UniProt O60674); assay: Biochemical JAK2 kinase assay (LanthaScreen)
Protocol: as §1, §2, §3, §4

[5] = tested on: IL-2 stimulated STAT5 phosphorylation in Tall-1 human T cell line (JAK3); assay: Cellular JAK3 potency assay: inhibition of IL-2 stimulated pSTAT5 in Tall-1 T cells; type: cell-based
Protocol: Assay 2: Cellular JAK3 Potency Assay: Inhibition of IL-2 Stimulated pSTAT5 in Tall-1 T Cells
The potency of test compounds for inhibition of interleukin-2 (IL-2) stimulated STAT5 phosphorylation was measured in the Tall-1 human T cell line (DSMZ) using AlphaLisa. Because IL-2 signals through JAK3, this assay provides a measure of JAK3 cellular potency.
Phosphorylated STAT5 was measured via the AlphaLISA SureFire Ultra pSTAT5 (Tyr694/699) kit (PerkinElmer).
Human T cells from the Tall-1 cell line were cultured in a 37° C., 5% CO2 humidified incubator in RPMI (Life Technologies) supplemented with 15% Heat Inactivated Fetal Bovine Serum (FBS, Life Technologies), 2 mM Glutamax (Life Technologies), 25 mM HEPES (Life Technologies) and 1× Pen/Strep (Life Technologies). Compounds were serially diluted in DMSO and dispensed acoustically to empty wells. Assay media (phenol red-free DMEM (Life Technologies) supplemented with 10% FBS (ATCC)) was dispensed (4 μL/well) and plates shaken at 900 rpm for 10 inns. Cells were seeded at 45,000 cells/well in assay media (4 μL/well), and incubated at 37° C., 5% CO2 for 1 hour, followed by the addition of IL-2 (R&D Systems; final concentration 300 ng/ml) in pre-warmed assay media (4 μL) for 30 minutes. After cytokine stimulation, cells were lysed with 6 ul of 3× AlphaLisa Lysis Buffer (PerkinElmer) containing 1× PhosStop and Complete tablets (Roche). The lysate was shaken at 900 rpm for 10 minutes at room temperature (RT). Phosphorylated STAT5 was measured via the pSTAT5 AlphaLisa kit (PerkinElmer). Freshly prepared acceptor bead mixture was dispensed onto lysate (5 μL) under green filtered <100 lux light. Plates were shaken at 900 rpm for 2 mins, briefly spun down, and incubated for 2 hrs at RT in the dark. Donor beads were dispensed (5 μL) under green filtered <100 lux light. Plates were shaken at 900 rpm for 2 minutes, briefly spun down, and incubated overnight at RT in the dark. Luminescence was measured with excitation at 689 nm and emission at 570 nm using an EnVision plate reader (PerkinElmer) under green filtered <100 lux light.
To determine the inhibitory potency of test compounds in response to IL-2, the average emission intensity of beads bound to pSTAT5 was measured in a human T cell line. IC50 values were determined from analysis of the inhibition curves of signal intensity versus compound concentration. Data are expressed as pIC50 (negative decadic logarithm IC50) values (mean standard deviation).

[6] = selectivity JAK3 over JAK1, difference of pKi
[7] = IL-2 stimulated pSTAT5, Tall-1 T cells
[8] = selectivity, difference of pKi values
[9] = IL-2 stimulated pSTAT5 in Tall-1 T cells

Tyk2, sequence (P29597 whole entry): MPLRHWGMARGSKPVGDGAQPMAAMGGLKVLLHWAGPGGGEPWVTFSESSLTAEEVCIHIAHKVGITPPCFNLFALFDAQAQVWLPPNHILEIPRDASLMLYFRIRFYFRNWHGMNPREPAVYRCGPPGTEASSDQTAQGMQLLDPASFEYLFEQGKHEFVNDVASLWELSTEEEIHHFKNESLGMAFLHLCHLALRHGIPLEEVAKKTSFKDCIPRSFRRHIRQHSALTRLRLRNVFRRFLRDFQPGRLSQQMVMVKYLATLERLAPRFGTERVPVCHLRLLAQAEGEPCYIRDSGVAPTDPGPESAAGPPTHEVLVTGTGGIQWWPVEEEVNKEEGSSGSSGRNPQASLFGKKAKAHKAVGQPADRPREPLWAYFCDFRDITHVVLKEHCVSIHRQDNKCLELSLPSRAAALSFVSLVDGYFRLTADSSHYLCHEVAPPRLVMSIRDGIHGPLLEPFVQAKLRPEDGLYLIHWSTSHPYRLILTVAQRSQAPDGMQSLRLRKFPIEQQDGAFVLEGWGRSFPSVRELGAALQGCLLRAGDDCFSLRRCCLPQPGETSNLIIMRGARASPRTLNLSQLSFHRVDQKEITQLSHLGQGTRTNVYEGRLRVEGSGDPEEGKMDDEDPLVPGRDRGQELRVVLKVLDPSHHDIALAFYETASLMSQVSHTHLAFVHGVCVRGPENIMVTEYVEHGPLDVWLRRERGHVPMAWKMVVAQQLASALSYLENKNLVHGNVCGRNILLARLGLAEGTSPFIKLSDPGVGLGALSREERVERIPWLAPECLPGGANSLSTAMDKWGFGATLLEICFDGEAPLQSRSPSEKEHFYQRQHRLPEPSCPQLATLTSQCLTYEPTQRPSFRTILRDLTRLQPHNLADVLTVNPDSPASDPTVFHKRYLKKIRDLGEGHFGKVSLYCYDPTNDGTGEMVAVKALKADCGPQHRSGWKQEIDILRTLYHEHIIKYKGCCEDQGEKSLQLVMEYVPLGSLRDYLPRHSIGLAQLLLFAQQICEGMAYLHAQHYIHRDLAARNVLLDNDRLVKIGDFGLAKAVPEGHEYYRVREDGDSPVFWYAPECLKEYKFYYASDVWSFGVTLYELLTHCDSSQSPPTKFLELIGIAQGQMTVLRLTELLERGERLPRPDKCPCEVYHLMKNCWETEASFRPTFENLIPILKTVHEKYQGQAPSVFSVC
JAK1, sequence (P23458 whole entry): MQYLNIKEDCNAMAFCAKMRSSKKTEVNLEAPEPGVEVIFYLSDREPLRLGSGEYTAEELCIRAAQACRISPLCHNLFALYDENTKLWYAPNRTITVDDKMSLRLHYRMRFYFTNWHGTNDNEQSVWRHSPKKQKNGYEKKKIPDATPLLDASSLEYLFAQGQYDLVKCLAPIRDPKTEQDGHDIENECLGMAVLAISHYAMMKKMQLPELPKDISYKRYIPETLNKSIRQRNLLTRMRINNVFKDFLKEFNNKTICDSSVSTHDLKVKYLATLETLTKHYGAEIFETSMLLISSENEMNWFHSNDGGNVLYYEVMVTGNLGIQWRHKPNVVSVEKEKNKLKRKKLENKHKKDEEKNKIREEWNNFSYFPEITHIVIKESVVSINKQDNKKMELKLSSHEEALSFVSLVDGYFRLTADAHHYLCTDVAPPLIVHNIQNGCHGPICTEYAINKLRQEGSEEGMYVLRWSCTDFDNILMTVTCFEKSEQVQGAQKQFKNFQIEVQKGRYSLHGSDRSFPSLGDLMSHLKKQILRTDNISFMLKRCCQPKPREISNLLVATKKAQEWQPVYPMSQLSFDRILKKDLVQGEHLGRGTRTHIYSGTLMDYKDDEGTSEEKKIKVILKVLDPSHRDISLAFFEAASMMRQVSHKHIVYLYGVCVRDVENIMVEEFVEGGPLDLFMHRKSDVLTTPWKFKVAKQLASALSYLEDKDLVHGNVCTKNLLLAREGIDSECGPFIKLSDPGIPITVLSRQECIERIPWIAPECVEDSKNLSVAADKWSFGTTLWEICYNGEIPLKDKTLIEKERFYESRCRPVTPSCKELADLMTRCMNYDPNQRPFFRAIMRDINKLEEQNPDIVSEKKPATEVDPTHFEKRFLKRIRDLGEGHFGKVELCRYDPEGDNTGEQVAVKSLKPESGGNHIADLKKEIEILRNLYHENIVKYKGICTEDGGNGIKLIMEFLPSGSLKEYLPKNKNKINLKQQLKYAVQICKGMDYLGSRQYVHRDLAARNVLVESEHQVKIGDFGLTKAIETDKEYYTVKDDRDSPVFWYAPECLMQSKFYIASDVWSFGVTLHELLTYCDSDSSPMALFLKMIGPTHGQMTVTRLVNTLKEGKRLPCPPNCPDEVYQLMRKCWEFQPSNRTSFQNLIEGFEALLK
JAK2, sequence (O60674 whole entry): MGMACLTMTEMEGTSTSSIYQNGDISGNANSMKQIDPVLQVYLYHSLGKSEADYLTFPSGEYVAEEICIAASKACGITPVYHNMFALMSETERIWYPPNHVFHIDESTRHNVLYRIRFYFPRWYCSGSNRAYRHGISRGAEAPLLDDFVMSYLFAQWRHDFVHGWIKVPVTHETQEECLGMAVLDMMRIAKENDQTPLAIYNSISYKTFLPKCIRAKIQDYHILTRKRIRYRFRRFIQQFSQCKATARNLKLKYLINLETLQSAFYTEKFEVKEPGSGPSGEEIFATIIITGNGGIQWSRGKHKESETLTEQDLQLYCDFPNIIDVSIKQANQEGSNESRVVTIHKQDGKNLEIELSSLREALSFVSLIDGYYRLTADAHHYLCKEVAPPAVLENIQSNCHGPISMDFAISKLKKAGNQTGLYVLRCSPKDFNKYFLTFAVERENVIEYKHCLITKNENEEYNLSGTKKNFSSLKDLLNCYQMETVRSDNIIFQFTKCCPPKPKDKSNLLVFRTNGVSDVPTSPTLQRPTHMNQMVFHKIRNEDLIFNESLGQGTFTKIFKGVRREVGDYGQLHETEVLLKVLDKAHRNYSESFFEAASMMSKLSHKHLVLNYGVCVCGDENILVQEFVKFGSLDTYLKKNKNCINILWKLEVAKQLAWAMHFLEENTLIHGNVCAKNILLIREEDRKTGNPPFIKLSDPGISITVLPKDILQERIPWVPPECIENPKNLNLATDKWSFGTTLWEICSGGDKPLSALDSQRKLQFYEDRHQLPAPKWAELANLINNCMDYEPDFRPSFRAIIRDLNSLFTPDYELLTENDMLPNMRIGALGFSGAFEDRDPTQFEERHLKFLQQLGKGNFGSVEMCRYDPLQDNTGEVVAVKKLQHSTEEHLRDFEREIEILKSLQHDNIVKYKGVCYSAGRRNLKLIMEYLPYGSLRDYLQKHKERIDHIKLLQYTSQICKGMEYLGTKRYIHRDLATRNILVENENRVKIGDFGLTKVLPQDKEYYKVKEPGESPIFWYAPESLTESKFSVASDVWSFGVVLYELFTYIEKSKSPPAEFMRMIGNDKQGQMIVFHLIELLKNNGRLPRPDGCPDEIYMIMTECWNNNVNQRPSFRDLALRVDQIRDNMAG
JAK3, sequence (P52333 whole entry): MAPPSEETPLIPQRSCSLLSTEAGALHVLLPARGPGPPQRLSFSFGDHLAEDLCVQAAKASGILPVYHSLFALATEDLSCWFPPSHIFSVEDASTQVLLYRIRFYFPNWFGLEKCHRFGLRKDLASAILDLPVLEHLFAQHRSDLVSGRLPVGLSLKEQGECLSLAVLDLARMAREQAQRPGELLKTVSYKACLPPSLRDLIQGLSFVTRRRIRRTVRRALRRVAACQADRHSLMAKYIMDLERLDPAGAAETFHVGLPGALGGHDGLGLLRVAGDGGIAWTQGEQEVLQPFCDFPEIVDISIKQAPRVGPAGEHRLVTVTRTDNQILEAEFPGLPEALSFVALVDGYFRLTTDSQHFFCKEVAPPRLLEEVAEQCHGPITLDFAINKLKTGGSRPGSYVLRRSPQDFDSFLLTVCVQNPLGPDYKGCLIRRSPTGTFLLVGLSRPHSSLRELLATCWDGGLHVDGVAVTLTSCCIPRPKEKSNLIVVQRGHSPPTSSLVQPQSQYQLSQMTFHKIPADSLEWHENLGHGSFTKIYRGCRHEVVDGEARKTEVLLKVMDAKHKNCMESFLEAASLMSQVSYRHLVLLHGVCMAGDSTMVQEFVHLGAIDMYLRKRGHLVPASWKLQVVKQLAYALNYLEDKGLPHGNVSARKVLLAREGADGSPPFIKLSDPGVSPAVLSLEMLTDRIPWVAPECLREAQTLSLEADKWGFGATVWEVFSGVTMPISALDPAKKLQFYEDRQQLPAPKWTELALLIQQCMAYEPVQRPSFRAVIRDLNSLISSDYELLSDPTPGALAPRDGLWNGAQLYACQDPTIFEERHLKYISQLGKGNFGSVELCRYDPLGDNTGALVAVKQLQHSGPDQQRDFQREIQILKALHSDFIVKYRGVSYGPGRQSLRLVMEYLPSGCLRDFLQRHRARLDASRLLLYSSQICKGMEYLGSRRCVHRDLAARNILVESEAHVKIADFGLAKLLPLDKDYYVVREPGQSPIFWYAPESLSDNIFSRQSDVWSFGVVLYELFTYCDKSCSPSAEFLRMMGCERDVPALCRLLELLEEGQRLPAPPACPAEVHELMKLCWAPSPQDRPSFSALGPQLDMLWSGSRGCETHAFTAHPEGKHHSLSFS

| SMILES | JAK 1 (pKi) [1] | Tyk 2 (pKi) [2] | JAK 3 (pKi) [3] | JAK3 (pKi)-JAK1 (pKi) [3, 6] | JAK 2 (pKi) [4] | Tall-1 (pIC50) [5, 7] | JAK3 (pKi)-JAK1 (pKi) [3, 8] | Tall-1 (pIC50) [5, 9] |
| --- | --- | --- | --- | --- | --- | --- | --- | --- |
| C=CC(=O)N1CC(CCn2c(=O)ccc3cnc(Nc4ccc(N5CCN(C(C)C)CC5)cc4)nc32)C1 [Example 120] | E (E represents a pKi value of 7 or below (Ki of 100 nM or above)) | E (E represents a pKi value of 7 or below (Ki of 100 nM or above)) | B (B represents pKi value between 9 and 10 (Ki between 1 nM and 0.1 nM)) | A (A represents a value of 3 or above) | E (E represents a pKi value of 7 or below (Ki of 100 nM or above)) | A (A represents a pIC50 value≥7.5 (IC50≤32 nM)) | – | – |
| C=CC(=O)N1CCN(CCn2c(=O)ccc3cnc(Nc4ccc(N5CCN(C(C)(C)C)CC5)cc4)nc32)CC1 [Example 219] | E (E represents a pKi value of 7 or below (Ki of 100 nM or above)) | E (E represents a pKi value of 7 or below (Ki of 100 nM or above)) | B (B represents pKi value between 9 and 10 (Ki between 1 nM and 0.1 nM)) | A (A represents a value of 3 or above) | E (E represents a pKi value of 7 or below (Ki of 100 nM or above)) | A (A represents a pIC50 value≥7.5 (IC50≤32 nM)) | – | – |
| C=CC(=O)N1CC(CCn2c(=O)ccc3cnc(Nc4ccc(N5CCSCC5)c(F)c4)nc32)C1 [Example 53] | E (E represents a pKi value of 7 or below (Ki of 100 nM or above)) | E (E represents a pKi value of 7 or below (Ki of 100 nM or above)) | B (B represents pKi value between 9 and 10 (Ki between 1 nM and 0.1 nM)) | A (A represents a value of 3 or above) | E (E represents a pKi value of 7 or below (Ki of 100 nM or above)) | B (B represents a pC50 value between 6.7 (included) and 7.5 (IC50 between 200 nM and 32 nM)) | – | – |
| C=CC(=O)N1CCN(C(C)(C)Cn2c(=O)ccc3cnc(Nc4ccc(N5CCN(C)CC5)cc4)nc32)CC1 [Example 164] | E (E represents a pKi value of 7 or below (Ki of 100 nM or above)) | E (E represents a pKi value of 7 or below (Ki of 100 nM or above)) | B (B represents pKi value between 9 and 10 (Ki between 1 nM and 0.1 nM)) | A (A represents a value of 3 or above) | E (E represents a pKi value of 7 or below (Ki of 100 nM or above)) | C (C represents a pIC50 value between 6 and 6.7 (IC50 between 1 μM and 200 nM)) | – | – |
| C=CC(=O)N1CCN(CCn2c(=O)ccc3cnc(Nc4cnn(CC(F)F)c4)nc32)[C@@H](C)C1 [Example 232] | E (E represents a pKi value of 7 or below (Ki of 100 nM or above)) | E (E represents a pKi value of 7 or below (Ki of 100 nM or above)) | A (A represents a pKi value≥10 (Ki≤0.1 nM)) | A (A represents a value of 3 or above) | E (E represents a pKi value of 7 or below (Ki of 100 nM or above)) | B (B represents a pC50 value between 6.7 (included) and 7.5 (IC50 between 200 nM and 32 nM)) | – | – |
| C=CC(=O)N1CCN(CCn2c(=O)ccc3cnc(Nc4cnn(CCF)c4)nc32)[C@@H](C)C1 [Example 236] | E (E represents a pKi value of 7 or below (Ki of 100 nM or above)) | E (E represents a pKi value of 7 or below (Ki of 100 nM or above)) | B (B represents pKi value between 9 and 10 (Ki between 1 nM and 0.1 nM)) | A (A represents a value of 3 or above) | E (E represents a pKi value of 7 or below (Ki of 100 nM or above)) | B (B represents a pC50 value between 6.7 (included) and 7.5 (IC50 between 200 nM and 32 nM)) | – | – |
| C=CC(=O)N1CC(CCn2c(=O)ccc3cnc(Nc4ccc(N5C[C@@H](C)N(C)[C@@H](C)C5)cc4)nc32)C1 [Example 247] | E (E represents a pKi value of 7 or below (Ki of 100 nM or above)) | E (E represents a pKi value of 7 or below (Ki of 100 nM or above)) | B (B represents pKi value between 9 and 10 (Ki between 1 nM and 0.1 nM)) | – | E (E represents a pKi value of 7 or below (Ki of 100 nM or above)) | – | A (A represents a value of 3 or above) | A (A represents a pIC50 value≥7.5 (IC50≤32 nM)) |
| C=CC(=O)N1CCN(CCn2c(=O)ccc3cnc(Nc4ccc(N5CCN(C(C)=O)CC5)c(Cl)c4)nc32)CC1 [Example 153] | E (E represents a pKi value of 7 or below (Ki of 100 nM or above)) | E (E represents a pKi value of 7 or below (Ki of 100 nM or above)) | B (B represents pKi value between 9 and 10 (Ki between 1 nM and 0.1 nM)) | A (A represents a value of 3 or above) | E (E represents a pKi value of 7 or below (Ki of 100 nM or above)) | C (C represents a pIC50 value between 6 and 6.7 (IC50 between 1 μM and 200 nM)) | – | – |
| C=CC(=O)N1CCN(CCn2c(=O)ccc3cnc(Nc4ccc(N5CCN(S(=O)(=O)N(C)C)CC5)cc4)nc32)CC1 [Example 211] | E (E represents a pKi value of 7 or below (Ki of 100 nM or above)) | E (E represents a pKi value of 7 or below (Ki of 100 nM or above)) | A (A represents a pKi value≥10 (Ki≤0.1 nM)) | A (A represents a value of 3 or above) | E (E represents a pKi value of 7 or below (Ki of 100 nM or above)) | B (B represents a pC50 value between 6.7 (included) and 7.5 (IC50 between 200 nM and 32 nM)) | – | – |
| C=CC(=O)N1CC(CCn2c(=O)ccc3cnc(Nc4ccc(N5CCN(S(=O)(=O)N(C)C)CC5)cc4)nc32)C1 [Example 97] | E (E represents a pKi value of 7 or below (Ki of 100 nM or above)) | E (E represents a pKi value of 7 or below (Ki of 100 nM or above)) | B (B represents pKi value between 9 and 10 (Ki between 1 nM and 0.1 nM)) | A (A represents a value of 3 or above) | E (E represents a pKi value of 7 or below (Ki of 100 nM or above)) | A (A represents a pIC50 value≥7.5 (IC50≤32 nM)) | – | – |
| C=CC(=O)N1CCN(CCn2c(=O)ccc3cnc(Nc4cnn(CCOC(F)F)c4)nc32)[C@@H](C)C1 [Example 238] | E (E represents a pKi value of 7 or below (Ki of 100 nM or above)) | E (E represents a pKi value of 7 or below (Ki of 100 nM or above)) | B (B represents pKi value between 9 and 10 (Ki between 1 nM and 0.1 nM)) | – | E (E represents a pKi value of 7 or below (Ki of 100 nM or above)) | – | A (A represents a value of 3 or above) | C (C represents a pIC50 value between 6 and 6.7 (IC50 between 1 μM and 200 nM)) |
